Measurements as given in US20070059378A1, “Medical composition for balancing bodily processes” (Metagenics, Inc., priority 2001, published 2007).

System: subjects with PMS symptoms
Experiment: Clinical study on PMS symptoms: Shortened Premenstrual Assessment Form (SPAF)
Assay type: in vivo, women
Settings: medical food/I3C group vs medical food/placebo group
Method: The clinical trial was performed at the Functional Medicine Research Center, Gig Harbor, Wash. […] Exclusion criteria for the study included: evidence of untreated endocrine, neurological, or infectious disorder; pregnancy or lactation; history of diabetes, mental illness or attempted suicide, or liver, kidney or heart disease; use of oral corticosteroids within four weeks prior to the screening; use of anti-arrhythmic or other cardiac medications.
The study was a […], 2-armed trial with stratification based on the use of birth control medication. Primary endpoints were monitored at the Screening Visit, Visit 1, Visit 2, and Visit 3. […]
Two research-validated, PMS-specific questionnaires were chosen for monitoring PMS symptoms: the Shortened Premenstrual Assessment Form (SPAF) and the Menstrual Distress Questionnaire (MDQ). […] The MDQ data is transformed to provide a normalized score for which a population mean of 50 and a standard deviation of 10 have been determined as reference values. […]
Baseline data (the level of symptoms experienced in the preceding 2 menstrual cycles) were obtained from averaging the Screening Visit and Visit 1 values, and served as a control for non-intervention variability. Laboratory and questionnaire data were analyzed by a one-way analysis of variance (ANOVA) using JMP Statistical Package (SAS Institute, Cary, N.C.). […]

SMILES: OCc1c[nH]c2ccccc12 [Example I3C, indole-3-carbinol]
- additional effect of I3C on PMS symptoms (questionnaire data) over medical food/placebo: no difference
- additional effect of I3C on PMS symptoms (questionnaire data) over medical food/placebo (listed as 13C): no additional effect
